Measured values from patent US4942245A, “Benzimidazole Derivatives” (Kyorin Pharmaceutical Co., Ltd., priority 1987, dated 1990).

Tests used:
leukotriene D4 = test: Leukotriene D4-induced bronchoconstriction (modified Konzett-Rossler, transpulmonary pressure) in anesthetized guinea pig, oral administration; format: in vivo, male Hartley guinea pig; conditions: p.o., 2 hours before leukotriene D4 (3 μg/kg, i.v.)
Experimental: A male Hartley guinea pig weighing about 450 g was anesthetized with sodium pentobarbital (30 mg/kg,i.p.). The change in transpulmonary pressure was measured by modifying the method of Konzett-Rossler (J. Harvey, et al., J. Pharmacol. Method. 9, 147-155, 1983) under an artificial ventilation. Animal was treated with indomethacin (10 mg/kg,i.v.) and propranolol (1 mg/kg,i.v.). Bronchoconstrictor response was obtained by bolus injection of leukotriene D4 (3 μg/kg,i.v.). Test compounds were suspended in 5% Gum Arabic solution and orally administered 2 hours before the challenge with leukotriene D4.

leukotriene = conditions: oral; P. Sheard et al, 1977; cited from earlier work

Structure (SMILES) | Inhibition (%) of LTD4-induced bronchoconstrictor response (leukotriene D4; 100 mg/kg) [%] | Inhibition (%) of LTD4-induced bronchoconstrictor response (leukotriene D4; 200 mg/kg) [%] | also measured
CCCc1c(OCCCSc2nc3ccc(C(=O)O)cc3[nH]2)ccc(C(C)=O)c1O [Example 1, 2-[3-(4-Acetyl-3-hydroxy-2-propylphenoxy)propyl-thio]benzimidazole-5-carboxylic acid] | 47.8 | 63.3 | 
CCCc1c(OCCCS(=O)(=O)c2nc3ccc(C(=O)O)cc3[nH]2)ccc(C(C)=O)c1O [Example 6, 2-[3-(4-Acetyl-3-hydroxy-2-propylphenoxy)propylsulfonyl]benzimidazole-5-carboxylic acid] |  | 40.5 | 
CCCc1c(OCCCCSc2nc3cc(C(=O)O)ccc3[nH]2)ccc(C(C)=O)c1O [Example 11] | 84.6 |  | Inhibition (%) of LTD4-induced bronchoconstrictor response (leukotriene D4; 25 mg/kg): 27.6%; Inhibition (%) of LTD4-induced bronchoconstrictor response (leukotriene D4; 50 mg/kg): 73.1%
CCCc1c(OCCCC[S+]([O-])c2nc3cc(C(=O)O)ccc3[nH]2)ccc(C(C)=O)c1O (stereo not drawn) [Example 12] |  | 33.3 | 
CCCc1c(OCCCCCSc2nc3cc(C(=O)O)ccc3[nH]2)ccc(C(C)=O)c1O [Example 24] |  | 57.1 | 
CCCc1c(OCCCCc2nc3ccc(C(=O)O)cc3[nH]2)ccc(C(C)=O)c1O [Example 36, 2-[4-(4-Acetyl-3-hydroxy-2-propylphenoxy)butyl]-benzimidazole-5-carboxylic acid] | 44.6 | 88.6 | 
CCCc1c(OCC(O)COc2ccc3c(=O)cc(C(=O)O)oc3c2CCC)ccc(C(C)=O)c1O (stereo not drawn) [FPL55712] |  |  | effect of leukotriene antagonist when administered orally (leukotriene): no effect
CCCc1c(OCCCS(=O)(=O)c2nc3ccccc3[nH]2)ccc(C(C)=O)c1O [Ref. 1, 2-[3-(4-acetyl-3-hydroxy-2-propylphenoxy)propylsulfonyl]-benzimidazole, reference compound] |  |  | Inhibition (%) of LTD4-induced bronchoconstrictor response (leukotriene D4; 400 mg/kg): 19.5%
